Measured values as given in the Deep4Chem optical property database.
Where “and” joins values, the source holds several entries; their conditions need not be identical. Equal entries are not always repeated.

Assay: photoluminescence quantum yield (fraction); solvent given as SMILES
[1] = in c1cc(-c2cccc(-n3c4ccccc4c4ccccc43)c2)cc(-n2c3ccccc3c3ccccc32)c1

CC(C)(C)c1ccc(-c2c(-c3ccc4c5ccccc5n(-c5ccccc5)c4c3)c(C#N)c(-c3ccc4c5ccccc5n(-c5ccccc5)c4c3)c(-c3ccc(C(C)(C)C)cc3)c2-c2ccc(C(C)(C)C)cc2)cc1
photoluminescence quantum yield (in C1CCOC1): 0.457

CCOC(=O)c1c2c3c(cccc3c3cc4ccccc4cc13)N(C)C2=O
photoluminescence quantum yield (in CC#N): 0.37

CCOC(=O)c1cc(C(=O)OCC)c2cc(NC(=O)C(F)(F)F)ccc2n1
photoluminescence quantum yield (in CCO): 0.34

c1cc2c3c(c1)OCCCCCCCCOc1cccc(c1-c1c4ccccc4c-3c3ccccc13)OCCCCCCCCO2
photoluminescence quantum yield (in C1CCCCC1): 0.95

CN(C)c1ccc2c(c1)C(C)(C)C(=O)C=C2
photoluminescence quantum yield (in O): 0.13

O=C1c2cc(-c3ccccc3)ccc2-c2ccc(-c3ccccc3)cc21
photoluminescence quantum yield (in C1CCOC1): 0.01

CNc1ccc2c(c1)C(=O)c1ccccc1-2
photoluminescence quantum yield (in C1CCCCC1): 0.0073
photoluminescence quantum yield (in c1ccccc1): 0.001

C[Si]1(C)O[Si](C)(C)c2cc3cc4c(cc3cc21)C(=O)c1cc2cc3c(cc2cc1C4=O)[Si](C)(C)O[Si]3(C)C
photoluminescence quantum yield (in ClC(Cl)Cl): 0.01

CN(C)c1cc(-c2ccc(C#Cc3ccccc3)cc2)cc2ccccc12
photoluminescence quantum yield (in ClCCl): 0.7

F[Si](c1ccccc1)(c1ccccc1)c1cc2ccccc2c2ccccc12
photoluminescence quantum yield (in C1CCOC1): 0.11

CC(C)(C)c1ccc2c(c1)c1cc(C(C)(C)C)ccc1n2-c1ccc(-n2c3ccc(C(C)(C)C)cc3c3cc(C(C)(C)C)ccc32)c(-c2nccnc2C#N)c1
photoluminescence quantum yield (in Cc1ccccc1): 0.05
photoluminescence quantum yield (in c1cc(-n2c3ccccc3c3ccccc32)cc(-n2c3ccccc3c3ccccc32)c1): 0.44

Cn1c(-c2ccc(-c3nc(-c4ccccc4)c(-c4ccccc4)n3C)cc2)nc(-c2ccccc2)c1-c1ccccc1
photoluminescence quantum yield (in CC#N): 0.9 and 0.66

COc1cn2cc(-c3ccc(C#N)cc3)[n-][n+]2c1
photoluminescence quantum yield (in ClCCl): 0.57

CC(C)c1cccc(C(C)C)c1N1C(=O)c2cccc3c(Oc4ccc(C(C)(C)C)cc4)ccc(c23)C1=O
photoluminescence quantum yield (in ClCCl): 0.11

CN(C)c1ccc(C#Cc2cc(C#Cc3ccc(C(F)(F)F)cc3)c3ccc4c(C#Cc5ccc(C(F)(F)F)cc5)cc(C#Cc5ccc(N(C)C)cc5)c5ccc2c3c54)cc1
photoluminescence quantum yield (in ClCCl): 0.42

CCCCCCN1C(=O)c2cccc3cc(/N=C\c4c[nH]c5c4ccc4ccccc45)cc(c23)C1=O
photoluminescence quantum yield (in ClC(Cl)Cl): 0.073

Cc1cc(C)c(C2=C3C=CC=[N+]3[B-]3(F)Oc4cc(O)cc5c6ccc(C)cc6c6cc2n3c6c45)c(C)c1 (stereo not drawn)
photoluminescence quantum yield (in ClC(Cl)Cl): 0.35

CCN(CC)c1ccc2c(c1)oc(=O)c1c(-c3ccccc3C(=O)O)c3ccc(=[N+](CC)CC)cc-3oc12
photoluminescence quantum yield (in CCO): 0.21
photoluminescence quantum yield (in ClC(Cl)Cl): 0.51
photoluminescence quantum yield (in O): 0.01

CN(C)c1ccc(/C=C/c2cc(/C=C/c3ccc(N(C)C)cc3)nc(/C=C/c3ccc(C(F)(F)F)cc3)n2)cc1
photoluminescence quantum yield (in ClCCl): 0.72

C(=C\c1nc2ccccc2[nH]1)/c1ccc(/C=C/c2nc3ccccc3[nH]2)cc1
photoluminescence quantum yield (in C1CCOC1): 0.855
photoluminescence quantum yield (in CC#N): 0.679
photoluminescence quantum yield (in CC(C)=O): 0.609
photoluminescence quantum yield (in CN(C)C=O): 0.775
photoluminescence quantum yield (in CO): 0.738
photoluminescence quantum yield (in CS(C)=O): 0.63

CC1(C)C(/C=C/C2=C(Cl)C(=C/C=C3/N(Cc4ccccc4)c4ccccc4C3(C)C)/CCC2)=[N+](Cc2ccccc2)c2ccccc21
photoluminescence quantum yield (in CCO): 0.117

COC(=O)C(N)Cc1ccc(O[Si]2(Oc3ccc(CC(N)C(=O)OC)cc3)n3c4c5ccccc5c3/N=C3N=C(/N=c5/c6ccccc6/c(n52)=N/C2=NC(=N\4)/c4ccccc42)c2ccccc2\3)cc1 (stereo not drawn)
photoluminescence quantum yield (in CN(C)C=O): 0.12

COC(=O)C(NC(=O)OC(C)(C)C)c1ccc2oc(-c3cc(OC)ccc3OC)nc2c1 (stereo not drawn)
photoluminescence quantum yield (in CC1CCCCC1): 0.51
photoluminescence quantum yield (in CC#N): 0.35
photoluminescence quantum yield (in CO): 0.37

COC(=O)c1ccc(/C=C2\C=C(c3ccc(OC)c(OC)c3)NC2=O)cc1
photoluminescence quantum yield (in C1COCCO1): 0.363

O=c1oc2ccccc2cc1-c1ccc(-c2ccc(-c3cc4ccccc4oc3=O)cc2)cc1
photoluminescence quantum yield (in ClCCl): 0.49

CC(C)c1cc(C(C)C)c(B2c3cc(N4c5ccccc5C(C)(C)c5ccccc54)ccc3N(c3ccccc3)c3ccc(N4c5ccccc5C(C)(C)c5ccccc54)cc32)c(C(C)C)c1
photoluminescence quantum yield [1]: 0.95

Brc1ccc(-c2pc3ccccc3s2)cc1 (stereo not drawn)
photoluminescence quantum yield (in CC#N): 0.032

CC(C)(C)c1ccc(-c2c(-c3cccc(-n4c5ccccc5c5ccccc54)c3)c(C#N)c(-c3cccc(-n4c5ccccc5c5ccccc54)c3)c(-c3ccc(C(C)(C)C)cc3)c2-c2ccc(C(C)(C)C)cc2)cc1
photoluminescence quantum yield (in C1CCOC1): 0.064

N#Cc1cc(C#N)c(-n2c3ccccc3c3cc(-c4ccc5c(c4)c4ccccc4n5-c4cc(-n5c6ccccc6c6ccccc65)c(C#N)cc4C#N)ccc32)cc1-n1c2ccccc2c2ccccc21
photoluminescence quantum yield (in O=P(c1ccccc1)(c1ccccc1)c1ccccc1Oc1ccccc1P(=O)(c1ccccc1)c1ccccc1): 0.87

Cc1cc(-c2ccc(-n3c4ccccc4c4ccccc43)cc2)nc(-c2ccc(-n3c4ccccc4c4ccccc43)cc2)n1
photoluminescence quantum yield (in C1CCOC1): 0.59
photoluminescence quantum yield (in CN(C)C=O): 0.63
photoluminescence quantum yield (in Cc1ccccc1): 0.64
photoluminescence quantum yield (in ClC(Cl)Cl): 0.61

O=C(c1ccncc1)c1ccc(-n2c3ccc(-n4c5ccccc5c5ccccc54)cc3c3cc(-n4c5ccccc5c5ccccc54)ccc32)cc1
photoluminescence quantum yield (in Cc1ccccc1): 0.243
photoluminescence quantum yield [1]: 0.96

Cc1cc(-c2nc3c4ccccc4c4ccccc4c3n2-c2ccc(C(C)(C)C)cc2)ccc1-c1ccc(-c2c(-c3ccccc3)nc3ccccn23)cc1
photoluminescence quantum yield (in ClCCl): 0.77

c1ccc(-c2cc3cccc[n+]3[b-]3ccc(-c4cc[b-]5c(c4)c(-c4ccccc4)cc4cccc[n+]54)cc32)cc1
photoluminescence quantum yield (in C1CCCCC1): 0.16

O=P1(c2ccccc2)C(c2ccc(C(F)(F)F)cc2)=Cc2cc3ccccc3cc21 (stereo not drawn)
photoluminescence quantum yield (in ClCCl): 0.42

CCOC(=O)c1cc(C(=O)OCC)c2ccc(N(C)C)cc2n1
photoluminescence quantum yield (in CCO): 0.41

CCn1c2ccccc2c2cc(-c3cc(-c4ccc5c(c4)c4ccccc4n5CC)ncn3)ccc21
photoluminescence quantum yield (in C1CCOC1): 0.44
photoluminescence quantum yield (in CCOC(C)=O): 0.8
photoluminescence quantum yield (in CN(C)C=O): 0.76
photoluminescence quantum yield (in Cc1ccccc1): 0.73
photoluminescence quantum yield (in ClCCl): 0.75

CCOC(=O)C1=CN(c2ccccc2)C=C(C(=O)OCC)C1c1ccccc1
photoluminescence quantum yield (in C1CCOC1): 0.51
photoluminescence quantum yield (in CO): 0.44

Cc1cc(C)c(B2c3cc(C(C)(C)C)cc4c5ccccc5c5c6ccccc6c6cc(C(C)(C)C)cc2c6c5c34)c(C)c1
photoluminescence quantum yield (in C1CCCCC1): 0.7

CCNc1cc2c(cc1C)C(c1ccccc1C(=O)O)=C1CCCC(/C=C/C3=[N+](C)c4ccccc4C3(C)C)=C1O2
photoluminescence quantum yield (in CC#N): 0.32
photoluminescence quantum yield (in CCO): 0.56
photoluminescence quantum yield (in CO): 0.55
photoluminescence quantum yield (in ClC(Cl)Cl): 0.54

CC(C)(C)N1C(=O)c2c(cc3ccc4cccc5ccc2c3c45)C1O (stereo not drawn)
photoluminescence quantum yield (in ClC(Cl)Cl): 0.14 and 0.143

COc1ccc(C2=[N+]3C(=Nc4c(C)cc(-c5ccc(OC)cc5)n4[B-]3(F)F)C(C)=C2)cc1
photoluminescence quantum yield (in CS(C)=O): 0.44

C#CCNC1=C2C=CC=[N+]2[B-](F)(F)n2cccc21
photoluminescence quantum yield (in C1CCCCC1): 0.93 and 0.999
photoluminescence quantum yield (in CC(C)=O): 0.86
photoluminescence quantum yield (in CCCCO): 0.79
photoluminescence quantum yield (in CCCO): 0.741
photoluminescence quantum yield (in CCO): 0.66 and 0.6
photoluminescence quantum yield (in CCOC(C)=O): 0.94
photoluminescence quantum yield (in CN(C)C=O): 0.442
photoluminescence quantum yield (in CO): 0.52
photoluminescence quantum yield (in CS(C)=O): 0.278
photoluminescence quantum yield (in Cc1ccccc1): 0.92
photoluminescence quantum yield (in ClC(Cl)Cl): 0.829
photoluminescence quantum yield (in OCC(F)(F)F): 0.88
photoluminescence quantum yield (in c1ccccc1): 0.924

Cc1ccc(C#Cc2ccc3ccc(=O)oc3c2)cc1
photoluminescence quantum yield (in CC#N): 0.016

CCCCN(CCCC)c1ccc(C#Cc2cc(C#Cc3ccc(N(CCCC)CCCC)cc3)c(C#Cc3ccc(C#N)cc3)cc2C#Cc2ccc(C#N)cc2)cc1
photoluminescence quantum yield (in ClCCl): 0.35

Cc1ccc2nc3cc4ccccc4cc3c(-c3ccccc3)c2c1
photoluminescence quantum yield (in ClCCl): 0.47

CCCCCCCCCCOc1ccc2cc(C3=C4C(=O)N(CC(OCC)OCC)C(c5cc6ccc(OCCCCCCCCCC)cc6o5)=C4C(=O)N3CC(OCC)OCC)oc2c1
photoluminescence quantum yield (in ClC(Cl)Cl): 0.75

Cc1ccsc1-c1ccc(-c2ccc(-c3sccc3C)s2)s1
photoluminescence quantum yield (in CCC(C)C): 0.19

CCCC1=Cc2nc1ccc1[nH]c(cc1CCC)c1nc(c(OC(=O)CCCC(=O)OC(C)(C)C)cc3[nH]c2cc3CCC)C(CCC)=C1
photoluminescence quantum yield (in Cc1ccccc1): 0.21

O=C(c1ccc(C(=O)c2ccc(N3c4ccccc4Oc4ccccc43)cc2)cc1)c1ccc(N2c3ccccc3Oc3ccccc32)cc1
photoluminescence quantum yield (in Cc1ccccc1): 0.1
photoluminescence quantum yield [1]: 0.36

O=C(O)c1ccccc1-c1nc(-c2ccccc2)c2ccccn12
photoluminescence quantum yield (in CC#N): 0.02

Brc1ccc(N(c2ccc(/C=C/c3ccncn3)cc2)c2ccc(/C=C/c3ccncn3)cc2)cc1
photoluminescence quantum yield (in ClCCl): 0.69

CC1=[N+]2C(=c3c4c5ccccc5cc5cccc(c6cc(C)n(c36)[B-]2(F)F)c54)C=C1
photoluminescence quantum yield (in C1CCOC1): 0.48
photoluminescence quantum yield (in CCCCCC): 0.48
photoluminescence quantum yield (in CO): 0.1
photoluminescence quantum yield (in CS(C)=O): 0.03
photoluminescence quantum yield (in ClC(Cl)Cl): 0.4
photoluminescence quantum yield (in ClCCl): 0.45

COc1ccc(-c2nc(-c3ccc(OC)cc3)n3ccccc23)cc1
photoluminescence quantum yield (in ClC(Cl)Cl): 0.22

CC(C)(C)c1ccc(C2=CC3=C(c4ccccc4)c4cc(-c5ccc(C(C)(C)C)cc5)c(-c5ccc(C(C)(C)C)cc5)n4[B-](F)(F)[N+]3=C2c2ccc(C(C)(C)C)cc2)cc1
photoluminescence quantum yield (in C1CCCCC1): 0.33
photoluminescence quantum yield (in C1CCOC1): 0.28
photoluminescence quantum yield (in CC#N): 0.29
photoluminescence quantum yield (in Cc1ccccc1): 0.43
photoluminescence quantum yield (in ClCCl): 0.3

Cc1cc(C#N)ccc1N1c2ccccc2C(c2ccccc2)(c2ccccc2)c2ccccc21
photoluminescence quantum yield (in Cc1ccccc1): 0.12

Cc1c2ccc(=[N+]3CCCCC3)cc-2oc2cc(N3CCCCC3)ccc12
photoluminescence quantum yield (in ClCCl): 0.91

CCCCN1c2ccccc2Sc2cc(/C=C/c3nc4nc5ccccc5nc4s3)ccc21
photoluminescence quantum yield (in C1CCCCC1): 0.27
photoluminescence quantum yield (in C1CCOC1): 0.01
photoluminescence quantum yield (in C1COCCO1): 0.07
photoluminescence quantum yield (in CC#N): 0
photoluminescence quantum yield (in CC(C)=O): 0.001
photoluminescence quantum yield (in CC(C)O): 0
photoluminescence quantum yield (in CCOC(C)=O): 0.02
photoluminescence quantum yield (in CCOCC): 0.05
photoluminescence quantum yield (in CO): 0
photoluminescence quantum yield (in CS(C)=O): 0
photoluminescence quantum yield (in Cc1ccccc1): 0.08
photoluminescence quantum yield (in ClCCl): 0.008
